In patent US20200131144A1, “AMINE OR (THIO)AMIDE CONTAINING LXR MODULATORS” (Phenex-FXR GmbH, priority 2017, published 2020) one finds EC50, concentration and Kp data, which are given here for 17 compounds.

The target in series [1] is T1, LXRβ ligand-binding domain (LBD) (Homo sapiens, UniProt P55055, INS174Q).
T1 construct: or LXR (amino acids 156-461); expressed in transfected cells; host or cells: HEK293
T1 sequence (P55055 with tags, fused parts or gaps INS174Q limits assumed): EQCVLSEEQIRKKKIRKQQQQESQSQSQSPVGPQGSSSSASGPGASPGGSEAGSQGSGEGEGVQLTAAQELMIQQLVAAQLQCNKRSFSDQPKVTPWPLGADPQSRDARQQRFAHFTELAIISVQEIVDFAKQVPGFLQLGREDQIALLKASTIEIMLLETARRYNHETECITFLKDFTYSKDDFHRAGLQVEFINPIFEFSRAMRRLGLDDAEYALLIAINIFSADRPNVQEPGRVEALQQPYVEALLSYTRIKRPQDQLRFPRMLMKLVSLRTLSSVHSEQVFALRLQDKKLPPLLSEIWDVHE
The series is described as follows: LXR Gal4 reporter transient transfection assay, mammalian two-hybrid, LBD-M2H Gal4β. In kind it is cell-based. As to conditions: HEK293 cells; inverse agonist unless *. The protocol: (§1) The tested compounds were usually dissolved, tested and stored as 20 mM stock solutions in DMSO. Since sulfonyl acetic acid derivatives tend to decarboxylate under these conditions, these stock solutions were prepared, tested and stored as 20 mM DMSO stock solutions containing 100 mM trifluoroacetic acid (5 equivalents). Sulfonyl acetic acid derivatives are shelf stable as solid at rt for long time as reported by Griesbrecht et al. (Synlett 2010:374) or Faucher et al. (J. Med. Chem. 2004; 47:18).
(§2) LXR Gal4 Reporter Transient Transfection Assays
(§3) LXRα and LXRβ activity status was determined via detection of interaction with coactivator and corepressor proteins in mammalian two-hybrid experiments (M2H). For this, via transient transfection the full length (FL) proteins of LXRα (amino acids 1-447; NP005684; SEQ ID NO:1) or LXRβ-(amino acids 1-461; NP009052; SEQ ID NO:2) or the ligand-binding domains (LBD) of LXRα (amino acids 155-447 SEQ ID NO:3) or LXR (amino acids 156-461; SEQ ID NO:4) were expressed from pCMV-AD (Stratagene) as fusions to the transcriptional activation domain of NFkB. As cofactors, domains of either the steroid receptor coactivator 1 (SRC1; amino acids 552-887; SEQ ID NO:5) or of the corepressor NCoR (amino acids 1906-2312; NP006302; SEQ ID NO:6) were expressed as fusions to the DNA binding domain of the yeast transcription factor GAL4 (from pCMV-BD; Stratagene). Interaction was monitored via activation of a coexpressed Firefly Luciferase Reporter gene under control of a promoter containing repetitive GAL4 response elements (vector pFRLuc; Stratagene). Transfection efficiency was controlled via cotransfection of constitutively active pRL-CMV Renilla reniformis luciferase reporter (Promega). HEK293 cells were grown in minimum essential medium (MEM) with 2 mM L-glutamine and Earle's balanced salt solution supplemented with 8.3% fetal bovine serum, 0.1 mM non-essential amino acids, 1 mM sodium pyruvate, at 37° C. in 5% CO2. 3.5×10^4 cells/well were plated in 96-well cell culture plates in growth medium supplemented with 8.3% fetal bovine serum for 16-20 h to—90% confluency. For transfection, medium was taken off and LXR and cofactor expressing plasmids as well as the reporter plasmids are added in 30 μL OPTIMEM/well including polyethylene-imine (PEI) as vehicle. Typical amounts of plasmids transfected/well: pCMV-AD-LXR (5 ng), pCMV-BD-cofactor (5 ng), pFR-Luc (100 ng), pRL-CMV (0.5 ng). Compound stocks were prepared in DMSO, prediluted in MEM to a total volume of 120 μL, and added 4 h after addition of the transfection mixture (final vehicle concentration not exceeding 0.2%). Cells were incubated for additional 16 h, lysed for 10 min in 1×Passive Lysis Buffer (Promega) and Firefly and Renilla luciferase activities were measured sequentially in the same cell extract using buffers containing D-luciferine and coelenterazine, respectively. Measurements of luminescence were done in a BMG-luminometer.

In series [2] the target is T2, LXRα ligand-binding domain (LBD) (Homo sapiens, UniProt Q13133).
T2 construct: expressed in transfected cells; host or cells: HEK293
T2 sequence (Q13133 155-447): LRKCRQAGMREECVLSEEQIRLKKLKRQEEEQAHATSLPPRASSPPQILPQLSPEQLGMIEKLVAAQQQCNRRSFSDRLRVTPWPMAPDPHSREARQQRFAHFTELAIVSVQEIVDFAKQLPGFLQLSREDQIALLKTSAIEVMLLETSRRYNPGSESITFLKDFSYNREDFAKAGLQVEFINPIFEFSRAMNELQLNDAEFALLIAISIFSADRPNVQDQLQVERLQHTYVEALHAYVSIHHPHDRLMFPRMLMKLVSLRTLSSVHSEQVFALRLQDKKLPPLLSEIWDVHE
Briefly: LXR Gal4 reporter transient transfection assay, mammalian two-hybrid, LBD-M2H Gal4α. The format is cell-based. As to conditions: HEK293 cells; inverse agonist unless *. The protocol:
as §1, §2, §3

Series [3] has as its target T3, GST-LXRβ ligand-binding domain (Homo sapiens, UniProt P55055, INS174Q).
T3 construct: amino acids 156-461; NP009052; made in house; host or cells: E. coli
T3 sequence (P55055 with tags, fused parts or gaps INS174Q limits assumed): T1 sequence (P55055 with tags, fused parts or gaps INS174Q limits assumed)
Briefly: TR-FRETβ activity assay (NCoA3 coactivator peptide recruitment). In kind it is biochemical. As to conditions: 1 μM 24(S)-25-epoxycholesterol as prestimulating agonist; inverse agonist unless *. Summed up: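 E. coli-expressed GST-LXRβ LBD (aa 156-461, 76 nM) with biotinylated NCoA3 peptide (400 nM), anti-GST-Tb cryptate donor and streptavidin-XL665 acceptor in 240 mM KCl, BSA, 0.002% Triton X-100. Equilibrated 1 h at 4° C; TR-FRET read at 615/665 nm, triplicates.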

Series [4] addresses T4, LXRα full length (FL) (Homo sapiens, UniProt Q13133).
T4 construct: the full length (FL) proteins of LXRα (amino acids 1-447); NP005684; expressed in transfected cells; host or cells: HEK293
T4 sequence (Q13133 1-447): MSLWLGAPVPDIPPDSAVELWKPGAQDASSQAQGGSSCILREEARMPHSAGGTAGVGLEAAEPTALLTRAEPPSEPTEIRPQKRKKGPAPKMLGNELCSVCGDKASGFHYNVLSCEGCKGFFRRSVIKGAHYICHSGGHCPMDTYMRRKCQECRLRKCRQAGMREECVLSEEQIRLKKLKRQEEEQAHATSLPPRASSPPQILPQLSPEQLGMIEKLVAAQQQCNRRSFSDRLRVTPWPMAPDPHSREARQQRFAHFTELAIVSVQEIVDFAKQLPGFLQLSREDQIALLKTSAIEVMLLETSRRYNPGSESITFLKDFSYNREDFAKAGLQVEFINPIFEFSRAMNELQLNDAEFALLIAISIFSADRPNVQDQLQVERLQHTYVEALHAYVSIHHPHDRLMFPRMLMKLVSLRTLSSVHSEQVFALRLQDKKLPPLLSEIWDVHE
Briefly: LXR Gal4 reporter transient transfection assay, mammalian two-hybrid, FL-M2H Gal4α. In kind it is cell-based. Conditions: HEK293 cells; inverse agonist unless *. Summed up: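 HEK293 cells transiently cotransfected with NFkB-AD fusions of full-length or LBD LXRα/β, GAL4-DBD fusions of SRC1 coactivator or NCoR corepressor domains, GAL4-driven firefly luciferase and Renilla control. Compound added 4 h post-transfection (≤0.2% DMSO), 16 h incubation; firefly and Renilla luminescence read sequentially.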

Series [5] in a line: Short term HFD mouse model: liver and plasma exposure after multiple oral dosing. The format is in vivo, mice (C57BL/6J). As to conditions: C57BL/6J, HFD mice, three oral doses of 10 mg/kg each, 4 h after final dose. The source says: Short Term HFD Mouse Model:
For this, C57BL/6J were purchased from Elevage Janvier (Rennes, France) at the age of 8 weeks. After an acclimation period of two weeks, animals were prefed on a high fat diet (HFD) (Ssniff Spezialdiäten GmbH, Germany, Surwit EF D12330 mod, Cat. No. E15771-34), with 60 kcal % from fat plus 1% (w/w) extra cholesterol (Sigma-Aldrich, St. Louis, Mo.) for 5 days. Animals were maintained on this diet during treatment with LXR modulators. The test compounds were formulated in 0.5% hydroxypropylmethylcellulose (HPMC) and administered in three doses (from 1.5 to 20 mg/kg each) by oral gavage according to the following schedule: on day one, animals received treatment in the morning and the evening (ca. 17:00), on day two animals received the final treatment in the morning after a 4 h fast and were sacrificed 4 h thereafter. Animal work was conducted according to the national guidelines for animal care in Germany.
Multiple oral dosing of compounds from the present invention in mice lead to a high liver exposure with a favourable liver to plasma ratio. […] These genes are related to hepatic de-novo lipogenesis. A suppression of these genes will reduce liver fat (liver triglycerides).

In general, EC50 refers to the concentration needed to bring the measured effect to its halfway point. Higher therefore signals a need for much substance.

Like-named read-outs stand apart in the source and are kept apart here. Where only a bound is given, the exact number is not on record here.

Regarding `COc1cc(-c2ccc3c(c2)C(C)(C)C(=O)OC3)ccc1CN(Cc1ccc(C(F)(F)F)o1)Cc1c(C)ccc2ccccc12` [7/9], the EC50 in series [1] was below 100 nM; in series [2] it was 1000 to 10000 nM; in series [3], 1000 to 10000 nM.

As to `Cc1ccc2ccccc2c1CN(Cc1ccc(C(F)(F)F)o1)Cc1ccc(-c2cccc(C(C)(C)C(=O)O)c2)c2nccn12` [7/15], the EC50 in series [1] was below 100 nM; in series [2], 100 to 1000 nM; in series [3] it was 1000 to 10000 nM.

`Cc1cc(C)c(C(=O)N(Cc2ccc(-c3cccc(CCC(=O)O)c3)cc2)Cc2ccc(C(F)(F)F)o2)c(C)c1` [10/2]: the EC50 was below 100 nM in series [1], 100 to 1000 nM in series [2] and 1000 to 10000 nM in series [3].

As to `Cc1cc(C)c(C(=O)N(Cc2ccc(-c3cccc(OCC(=O)O)c3)cc2)Cc2ccc(C(F)(F)F)o2)c(C)c1` [10/3], the 50% effective concentration (EC50) in series [1] was 100 to 1000 nM; in series [2], 100 to 1000 nM; in series [3] it was above 10000 nM.

For `Cc1ccc2ccccc2c1CN(Cc1ccc(-c2cc(C(C)(C)C(=O)O)ccn2)cc1)Cc1ccc(C(F)(F)F)o1` [14/1], the EC50 is below 100 nM in series [1], 100 to 1000 nM in series [2] and 1000 to 10000 nM in series [3].

On to `Cc1ccc2ccccc2c1CN(Cc1ccc(-c2cccc(C(C)(C)C(=O)O)n2)cc1)Cc1ccc(C(F)(F)F)o1` [14/2], for which the EC50 in series [1] was below 100 nM; in series [2], 100 to 1000 nM; in series [3], 1000 to 10000 nM.

Consider `Cc1ccc2ccccc2c1CN(Cc1ccc(-c2ccnc(C(C)(C)C(=O)O)c2)cc1)Cc1ccc(C(F)(F)F)o1` [14/3], for which the EC50 in series [1] is below 100 nM; in series [2], below 100 nM; in series [3], 100 to 1000 nM.

On to `Cc1cc(C)c(CN(Cc2ccc(C(F)(F)F)o2)Cc2ccc(-c3cccc(S(=O)(=O)CC(=O)O)c3)cc2Cl)c(C)c1` [15/3], for which the EC50 fell in the range of 100 to 1000 nM in series [1], 1000 to 10000 nM in series [2] and 1000 to 10000 nM in series [3].

In the case of `COc1cc(CN(Cc2ccc(C(F)(F)F)o2)Cc2c(C)ccc3ccccc23)ccc1-c1cccc(C(C)(C)C(=O)O)c1` [22/1], the EC50 in series [1] was in the range of 100 to 1000 nM; in series [3], 1000 to 10000 nM.

Consider `Cc1ccc2ccccc2c1CN(Cc1ccc(C(F)(F)F)o1)Cc1cnc(-c2cccc(C(C)(C)C(=O)O)c2)s1` [22/2], for which the EC50 in series [1] was 100 to 1000 nM; in series [3] it was 1000 to 10000 nM.

On to `COc1cc(-c2cccc(C(C)(C)C(=O)O)c2)cnc1CN(Cc1ccc(C(F)(F)F)o1)Cc1c(C)ccc2ccccc12` [22/4], for which the EC50 in series [1] is below 100 nM; in series [2], 1000 to 10000 nM; in series [3] it was 100 to 1000 nM.

For `COc1cc(-c2cccc(C(C)(C)C(=O)O)c2)ccc1CN(Cc1ccc(C(F)(F)F)o1)Cc1c(C)cc(C)cc1C` [22/12], the EC50 was below 100 nM in series [1], 100 to 1000 nM in series [2] and 100 to 1000 nM in series [3].

For the compound `Cc1ccc2cccnc2c1CN(Cc1ccc(-c2cccc(C(C)(C)C(=O)O)c2)cc1)Cc1ccc(C(F)(F)F)o1` [24/2], the figures for the 50% effective concentration (EC50) in series [1], in series [2] and in series [3] were below 100 nM, 100 to 1000 nM and 1000 to 10000 nM, respectively.

With `CC(C)(C(=O)O)c1cccc(-c2ccc(CN(Cc3ccc(C(F)(F)F)o3)Cc3cccc4c3OC(F)(F)O4)cc2)c1` [25/2], the EC50 is below 100 nM in series [1] and 100 to 1000 nM in series [2].

`Cc1ccc2ccccc2c1CN(Cc1ccc(-c2nc(C(C)(C)C(=O)O)cs2)cc1)Cc1ccc(C(F)(F)F)o1` [26/3]: the EC50 in series [1] is below 100 nM; in series [3], 1000 to 10000 nM.

For `Cc1ccc2ccccc2c1CN(Cc1ccc(-c2cccc([C@@H](C)C(=O)O)c2)cc1)Cc1ccc(C(F)(F)F)o1` [27/72], the EC50 in series [4] was below 100 nM; in series [3], 100 to 1000 nM. For the same compound, the concentration at 4 h amounted to 2020 nM in series [5] (liver, read-out: liver exposure, 4 h) and 1440 nM in series [5] (plasma, read-out: plasma exposure, 4 h). Moreover, the Kp at 4 h in series [5] (liver/plasma, read-out: liver/plasma ratio, 4 h) was found to be 1.4.

With `Cc1nc2ccccc2nc1CN(Cc1ccc(-c2cccc(C(C)(C)C(=O)O)c2)cc1)Cc1ccc(C(F)(F)F)o1` [Example 25], the figures for the EC50 in series [1] and in series [3] were 100 to 1000 nM and above 10000 nM, respectively.
